{"source": "ChEMBL document CHEMBL6134783", "about": "“Discovery of hybrid Glypromate conjugates with neuroprotective activity against paraquat-induced toxicity” (RSC Med Chem, 2024)", "key": {"SH-SY5Y [1]": {"system": "SH-SY5Y", "assay": "Neuroprotective activity against 6-OHDA-induced cytotoxicity in differentiated human SH-SY5Y cells at 100 uM incubated for 48 hrs by MTT reduction assay relative to control", "format": "functional"}, "SH-SY5Y [2]": {"system": "SH-SY5Y", "assay": "Neuroprotective activity against 6-OHDA-induced cytotoxicity in differentiated human SH-SY5Y cells at 100 uM incubated for 48 hrs by NR uptake assay", "format": "functional, cell-based"}, "[3]": {"assay": "Neurotoxicity against retinoic acid/TPA differentiated human SH-SY5Y cells assessed as reduction in cell viability at 100 uM measured after 48 hrs by MTT assay relative to control", "format": "toxicity, cell-based"}, "SH-SY5Y [4]": {"system": "SH-SY5Y", "assay": "Neuroprotective activity against PQ-induced cytotoxicity in differentiated human SH-SY5Y cells at 100 uM incubated for 48 hrs by MTT reduction assay", "format": "functional", "parameters": "scale not given: the % may be the effect or the level left"}, "SH-SY5Y [5]": {"system": "SH-SY5Y", "assay": "Neuroprotective activity against PQ-induced cytotoxicity in differentiated human SH-SY5Y cells assessed as NR uptake at 100 uM incubated for 48 hrs by NR uptake assay (reference value: 36.78 +/- 9.57%)", "format": "functional"}, "SH-SY5Y [6]": {"system": "SH-SY5Y", "assay": "Neuroprotective activity in amyloid beta (25 to 35)-induced non-differentiated human SH-SY5Y cells assessed as reduction in protein aggregation at 100 uM incubated for 24 hrs by ThT fluorescence assay relative to control", "format": "functional"}, "[7]": {"assay": "Neurotoxicity against non-differentiated human SH-SY5Y cells assessed as reduction in cell viability at 100 uM measured after 24 hrs by MTT assay relative to control", "format": "toxicity, cell-based"}, "SH-SY5Y [8]": {"system": "SH-SY5Y", "assay": "Neuroprotective activity against PQ-induced cytotoxicity in differentiated human SH-SY5Y cells assessed as viable cells at 100 uM incubated for 48 hrs by MTT reduction assay (reference value: 46.02 +/- 3.61%)", "format": "functional", "settings": "read-out: Activity"}, "SH-SY5Y [9]": {"system": "SH-SY5Y", "assay": "Neuroprotective activity against 6-OHDA-induced cytotoxicity in differentiated human SH-SY5Y cells assessed as NR uptake at 100 uM incubated for 48 hrs by NR uptake assay (reference value: 61.31 +/- 12.93%)", "format": "functional"}, "SH-SY5Y [10]": {"system": "SH-SY5Y", "assay": "Neuroprotective activity against PQ-induced cytotoxicity in differentiated human SH-SY5Y cells at 100 uM incubated for 48 hrs by NR uptake assay", "format": "functional"}}, "note": "Calls of active or inactive are those of the source. The rule behind the calls is not given here.", "data": [{"compound": "COC(=O)CC[C@H](NC(=O)[C@@H]1[C@H]2CC[C@H](C2)N1C(=O)CN(C)C)C(=O)N[C@@H]1CCc2ccccc21", "values": [{"measurement": "Activity", "setting": "SH-SY5Y [1]", "result": "inactive"}, {"measurement": "Activity", "setting": "SH-SY5Y [2]", "result": "inactive"}, {"measurement": "Cell viability (% of control)", "setting": "[3]", "result": 100.56, "unit": "%"}]}, {"compound": "COC(=O)CC[C@H](NC(=O)[C@@H]1[C@H]2CC[C@H](C2)N1C(=O)CN)C(=O)N[C@@H]1CCc2ccccc21.O=C(O)C(F)(F)F", "values": [{"measurement": "Activity", "setting": "SH-SY5Y [4]", "result": 4, "unit": "%"}, {"measurement": "Activity", "setting": "SH-SY5Y [1]", "result": "inactive"}, {"measurement": "Activity", "setting": "SH-SY5Y [2]", "result": "inactive"}, {"measurement": "Cell viability (% of control)", "setting": "[3]", "result": 98.48, "unit": "%"}, {"measurement": "Activity", "setting": "SH-SY5Y [5]", "result": 40.76, "unit": "%"}, {"measurement": "Activity", "setting": "SH-SY5Y [6]", "result": "inactive"}, {"measurement": "Activity", "setting": "[7]", "result": 96.04, "unit": "%"}]}, {"compound": "COC(=O)[C@H](CCC(=O)NC12CC3CC(CC(C3)C1)C2)NC(=O)[C@@H]1[C@H]2CC[C@H](C2)N1C(=O)CNC(=O)OC(C)(C)C", "values": [{"measurement": "Activity", "setting": "[7]", "result": 89.94, "unit": "%"}]}, {"compound": "COC(=O)CC[C@H](NC(=O)[C@@H]1[C@H]2CC[C@H](C2)N1C(=O)CNC(=O)OC(C)(C)C)C(=O)NC12CC3CC(C)(CC(C)(C3)C1)C2", "values": [{"measurement": "Activity", "setting": "SH-SY5Y [1]", "result": "inactive"}, {"measurement": "Activity", "setting": "SH-SY5Y [2]", "result": "inactive"}, {"measurement": "Cell viability (% of control)", "setting": "[3]", "result": 98.1, "unit": "%"}, {"measurement": "viability at 100 µM", "setting": "SH-SY5Y [8]", "result": 38.8, "unit": "%"}]}, {"compound": "NCC(=O)N1CCC[C@H]1C(=O)N[C@@H](CCC(=O)O)C(=O)O", "values": [{"measurement": "Activity", "setting": "SH-SY5Y [1]", "result": 12, "unit": "%"}, {"measurement": "Activity", "setting": "SH-SY5Y [9]", "result": 25.32, "unit": "%"}, {"measurement": "Activity", "setting": "SH-SY5Y [5]", "result": 36.33, "unit": "%"}, {"measurement": "viability at 100 µM", "setting": "SH-SY5Y [8]", "result": 25.3, "unit": "%"}, {"measurement": "Activity", "setting": "SH-SY5Y [6]", "result": 12, "unit": "%"}]}, {"compound": "COC(=O)CC[C@H](NC(=O)[C@@H]1[C@H]2CC[C@H](C2)N1C(=O)CN(C)C)C(=O)NC12CC3CC(CC(C3)C1)C2", "values": [{"measurement": "Activity", "setting": "SH-SY5Y [6]", "result": 24, "unit": "%"}, {"measurement": "Activity", "setting": "[7]", "result": 97.93, "unit": "%"}]}, {"compound": "COC(=O)CC[C@H](NC(=O)[C@@H]1[C@H]2CC[C@H](C2)N1C(=O)CNC(=O)OC(C)(C)C)C(=O)NC12CC3CC(CC(C3)C1)C2", "values": [{"measurement": "Activity", "setting": "[7]", "result": 90.79, "unit": "%"}]}, {"compound": "COC(=O)[C@H](CCC(=O)N[C@@H]1CCc2ccccc21)NC(=O)[C@@H]1[C@H]2CC[C@H](C2)N1C(=O)CN(C)C", "values": [{"measurement": "Activity", "setting": "SH-SY5Y [4]", "result": 12, "unit": "%"}, {"measurement": "Activity", "setting": "SH-SY5Y [10]", "result": "<=15%"}, {"measurement": "Activity", "setting": "SH-SY5Y [1]", "result": "inactive"}, {"measurement": "Activity", "setting": "SH-SY5Y [2]", "result": "inactive"}, {"measurement": "Cell viability (% of control)", "setting": "[3]", "result": 96.47, "unit": "%"}, {"measurement": "Activity", "setting": "SH-SY5Y [6]", "result": "inactive"}, {"measurement": "Activity", "setting": "[7]", "result": 90.95, "unit": "%"}]}, {"compound": "COC(=O)[C@H](CCC(=O)NC12CC3CC(C)(CC(C)(C3)C1)C2)NC(=O)[C@@H]1[C@H]2CC[C@H](C2)N1C(=O)CN.O=C(O)C(F)(F)F", "values": [{"measurement": "Activity", "setting": "[7]", "result": 32.77, "unit": "%"}]}, {"compound": "N[C@@H]1CCc2ccccc21", "values": [{"measurement": "Activity", "setting": "SH-SY5Y [5]", "result": 22.95, "unit": "%"}, {"measurement": "viability at 100 µM", "setting": "SH-SY5Y [8]", "result": 23.6, "unit": "%"}]}, {"compound": "COC(=O)[C@H](CCC(=O)NC12CC3CC(CC(C3)C1)C2)NC(=O)[C@@H]1CCCN1C(=O)CN", "values": [{"measurement": "Activity", "setting": "SH-SY5Y [6]", "result": "inactive"}]}, {"compound": "COC(=O)CC[C@H](NC(=O)[C@@H]1CCCN1C(=O)CN)C(=O)N[C@@H]1CCc2ccccc21", "values": [{"measurement": "Activity", "setting": "SH-SY5Y [6]", "result": "Active"}]}, {"compound": "COC(=O)[C@H](CCC(=O)N[C@@H]1CCc2ccccc21)NC(=O)[C@@H]1CCCN1C(=O)CN", "values": [{"measurement": "Activity", "setting": "SH-SY5Y [6]", "result": "Active"}]}, {"compound": "COC(=O)[C@H](CCC(=O)NC12CC3CC(CC(C3)C1)C2)NC(=O)[C@@H]1[C@H]2CC[C@H](C2)N1C(=O)CN.O=C(O)C(F)(F)F", "values": [{"measurement": "Activity", "setting": "SH-SY5Y [1]", "result": "inactive"}, {"measurement": "Activity", "setting": "SH-SY5Y [2]", "result": "inactive"}, {"measurement": "Cell viability (% of control)", "setting": "[3]", "result": 96.82, "unit": "%"}, {"measurement": "Activity", "setting": "SH-SY5Y [5]", "result": 40.94, "unit": "%"}, {"measurement": "Activity", "setting": "[7]", "result": 89.15, "unit": "%"}]}, {"compound": "COC(=O)CC[C@H](NC(=O)[C@@H]1[C@H]2CC[C@H](C2)N1C(=O)CNC(=O)OC(C)(C)C)C(=O)N[C@@H]1CCc2ccccc21", "values": [{"measurement": "Activity", "setting": "SH-SY5Y [6]", "result": "inactive"}, {"measurement": "Activity", "setting": "[7]", "result": 86.49, "unit": "%"}]}, {"compound": "NC12CC3CC(CC(C3)C1)C2", "note": "[AMANTADINE]", "values": [{"measurement": "Activity", "setting": "SH-SY5Y [6]", "result": 17, "unit": "%"}]}, {"compound": "COC(=O)[C@H](CCC(=O)NC12CC3CC(C)(CC(C)(C3)C1)C2)NC(=O)[C@@H]1[C@H]2CC[C@H](C2)N1C(=O)CN(C)C", "values": [{"measurement": "Cell viability (% of control)", "setting": "[3]", "result": 9.07, "unit": "%"}, {"measurement": "Activity", "setting": "[7]", "result": 32.77, "unit": "%"}]}, {"compound": "COC(=O)CC[C@H](NC(=O)[C@@H]1[C@H]2CC[C@H](C2)N1C(=O)CN)C(=O)NC12CC3CC(CC(C3)C1)C2.O=C(O)C(F)(F)F", "values": [{"measurement": "Activity", "setting": "SH-SY5Y [4]", "result": 5, "unit": "%"}, {"measurement": "Activity", "setting": "SH-SY5Y [1]", "result": "inactive"}, {"measurement": "Activity", "setting": "SH-SY5Y [2]", "result": "inactive"}, {"measurement": "Cell viability (% of control)", "setting": "[3]", "result": 102.46, "unit": "%"}, {"measurement": "Activity", "setting": "SH-SY5Y [6]", "result": 20, "unit": "%"}, {"measurement": "Activity", "setting": "[7]", "result": 93.91, "unit": "%"}]}, {"compound": "COC(=O)[C@H](CCC(=O)N[C@@H]1CCc2ccccc21)NC(=O)[C@@H]1[C@H]2CC[C@H](C2)N1C(=O)CNC(=O)OC(C)(C)C", "values": [{"measurement": "Activity", "setting": "SH-SY5Y [1]", "result": "inactive"}, {"measurement": "Activity", "setting": "SH-SY5Y [2]", "result": "inactive"}, {"measurement": "Cell viability (% of control)", "setting": "[3]", "result": 94.07, "unit": "%"}, {"measurement": "Activity", "setting": "[7]", "result": 32.77, "unit": "%"}]}]}
